“And” between values parts separate entries of the source, which are not always exact repeats. Identical values can stand only once.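 Results reflect a 48-hour exposure of cells in 96-well plates to compound at five concentrations. The concentration for 50% growth inhibition is given as GI50.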 The source made the active and inactive calls. No stated cut-off is given here; in the data, active = GI50 up to about 1.1 µM and inactive = higher.
Experiments:
Test in all cases: DTP human tumour cell line panel, 48 h
[1] = test system: HOP-92
[2] = test system: HT-29
[3] = test system: MDA-MB-231
[4] = test system: T47D
[5] = test system: TK-10
[6] = test system: MOLT-4
[7] = test system: DU-145
[8] = test system: ACHN
[9] = test system: NCI-H522
[10] = test system: UACC-62
[11] = test system: HCT-15
[12] = test system: SN12C
[13] = test system: KM12
[14] = test system: OVCAR-3
[15] = test system: OVCAR-8
[16] = test system: 786-0
[17] = test system: NCI/ADR-RES
[18] = test system: HCT-116
[19] = test system: MDA-N
[20] = test system: UO-31
[21] = test system: OVCAR-5
[22] = test system: MCF7
[23] = test system: HL-60
[24] = test system: SF-268
[25] = test system: CCRF-CEM
[26] = test system: SW-620
[27] = test system: MDA-MB-435
[28] = test system: IGROV-1
[29] = test system: SK-MEL-2
[30] = test system: SK-OV-3
[31] = test system: A549
[32] = test system: SK-MEL-5
[33] = test system: SNB-19
[34] = test system: SR
[35] = test system: K562
[36] = test system: Hs-578T
[37] = test system: PC-3
[38] = test system: OVCAR-4
[39] = test system: SK-MEL-28
[40] = test system: HOP-62
[41] = test system: COLO 205
[42] = test system: Malme-3M
[43] = test system: SF-295
[44] = test system: U-251
[45] = test system: LOX IMVI
[46] = test system: SNB-75
[47] = test system: NCI-H226
[48] = test system: NCI-H23
[49] = test system: EKVX
[50] = test system: RPMI-8226
[51] = test system: M14
[52] = test system: A498
[53] = test system: HCC 2998
[54] = test system: NCI-H460
[55] = test system: RXF 393
[56] = test system: UACC-257
[57] = test system: SF-539
[58] = test system: CAKI-1

Measured: GI50

O=C1CC(CC(OCc2ccccc2)C(OCc2ccccc2)C(COCc2ccccc2)OCc2ccccc2)CC(=O)N1 (stereo not given)
inactive: [1] > 100 µM | [2] 4.53 µM | [3] 8.67 µM | [4] > 10 µM | [5] > 100 µM and 81.8 µM

CN(C)CCNC(=O)c1cccc2c(NC(CCCNC(=N)N)C(=O)O)c3ccccc3nc12 (stereo not given)
active: [34] 1 µM
6.37 µM: [11]
inactive: [6] 3.89 µM | [1] 3.85 µM | [7] 17 µM | [8] 2.79 µM | [9] 3.75 µM | [10] 15.8 µM | [12] 10.5 µM | [13] 7.26 µM | [14] 18.1 µM | [15] 4.13 µM | [2] 2.7 µM | [16] 7.52 µM | [3] 9.27 µM | [17] 3.75 µM | [18] 3.93 µM | [19] 14 µM | [20] 2.82 µM | [21] 9.95 µM | [22] 5.27 µM | [23] > 100 µM | [24] 9.2 µM | [25] 15.3 µM | [26] 5.4 µM | [27] 10.1 µM | [28] 4.59 µM | [29] 13.8 µM | [30] 12.6 µM | [31] 4.8 µM | [32] 6.05 µM | [33] 3.94 µM | [35] 5.68 µM | [36] 11.4 µM | [37] 9.1 µM | [38] 5.09 µM | [39] 25.7 µM | [40] 9.73 µM | [41] 6.22 µM | [42] 3.86 µM | [43] 7.57 µM | [44] 14.3 µM | [45] 3.85 µM | [46] 8.83 µM | [47] 3.88 µM | [48] 5.53 µM | [49] 3.48 µM | [5] 21.1 µM | [50] 6.59 µM | [51] 14 µM | [52] 19.8 µM

Cc1cccc2c1C(=O)C1(Cc3ccccc3C1=O)C2 (stereo not given)
> 100 µM: [11]
inactive: [6] 91.2 µM | [1] > 100 µM | [7] > 100 µM | [8] > 100 µM | [53] > 100 µM | [9] > 100 µM | [10] 84.7 µM | [12] > 100 µM | [54] 70.3 µM | [14] > 100 µM | [15] > 100 µM | [2] > 100 µM | [16] > 100 µM | [3] > 100 µM | [17] 87.1 µM | [18] > 100 µM | [19] > 100 µM | [20] 28.9 µM | [21] > 100 µM | [22] > 100 µM | [23] > 100 µM | [24] > 100 µM | [25] > 100 µM | [26] > 100 µM | [27] > 100 µM | [28] > 100 µM | [55] > 100 µM | [56] > 100 µM | [30] > 100 µM | [31] > 100 µM | [32] > 100 µM | [33] > 100 µM | [34] > 100 µM | [35] > 100 µM | [36] 48.3 µM | [57] > 100 µM | [37] > 100 µM | [38] > 100 µM | [39] > 100 µM | [40] > 100 µM | [41] > 100 µM | [42] > 100 µM | [4] 52.8 µM | [43] > 100 µM | [44] > 100 µM | [45] > 100 µM | [46] 46.5 µM | [47] > 100 µM | [48] > 100 µM | [49] > 100 µM | [5] > 100 µM | [50] 57.9 µM | [51] > 100 µM | [52] 47.1 µM

Clc1ccccc1/C=C\C1(c2ccccc2)OCCO1
12.6 µM: [11]
inactive: [6] 15.9 µM | [1] 28.9 µM | [7] 16.7 µM | [8] 17.3 µM | [53] 17.5 µM | [9] 13.4 µM | [10] 15.7 µM | [12] 18.1 µM | [54] 16.8 µM | [13] 11 µM | [14] 17.7 µM | [15] 17.7 µM | [2] 15.8 µM | [16] 16.5 µM | [3] 12.7 µM | [58] 17.3 µM | [17] 16.4 µM | [18] 12.3 µM | [19] 15.6 µM | [20] > 100 µM | [21] 20 µM | [22] 2.77 µM | [23] 24.8 µM | [24] 13.1 µM | [25] 19.7 µM | [26] 16.1 µM | [27] 15.6 µM | [28] 14.2 µM | [55] 19.1 µM | [56] 16.7 µM | [30] 29.8 µM | [31] > 100 µM | [32] 19.8 µM | [34] 3.58 µM | [35] 16.7 µM | [36] 13.8 µM | [57] 24.9 µM | [38] 18 µM | [39] 21.1 µM | [40] 22.3 µM | [41] 21.3 µM | [4] 26.9 µM | [43] 16.7 µM | [44] 12.2 µM | [45] 5.36 µM | [46] 19 µM | [47] 27.1 µM | [48] 10.2 µM | [49] 19.1 µM | [5] 22.2 µM | [50] 4.2 µM | [51] > 100 µM | [52] 20.7 µM

From ChEMBL document CHEMBL1201862, “PubChem BioAssay data set” (2004)
